Patent US20230398130A1, “METHODS AND COMPOSITIONS FOR DIFFERENTIATING STEM CELLS” (Massachusetts Institute of Technology, priority 2020, published 2023)

Key:
ISC-enriched organoids [1] = assay: Primary screen, 384-well 2.5-D organoid differentiation (ENR+CD, 6 days, Target Selective Inhibitor Library, vs whole-plate median): ATP (CellTiter-Glo 3D, CTG); conditions: for Dose.FC.CTG: primary screen, FC vs plate median; for Z.CTG: standard z score of FC
ISC-enriched organoids [2] = assay: Primary screen, 384-well 2.5-D organoid differentiation (ENR+CD, 6 days): carbachol-induced lysozyme secretion (LYZ.S); format: cell-based, murine; conditions: primary screen, FC vs plate median
Description: (§1) High-throughput screening.

ISC-enriched organoids [3] = assay: Primary screen, 384-well 2.5-D organoid differentiation (ENR+CD, 6 days): basal lysozyme secretion (LYZ.NS); format: cell-based, murine; conditions: for Dose.FC.LYZ.NS: primary screen, FC vs plate median; for Z.LYZ.NS: standard z score of FC
Description: as §1

OCCn1cc(-c2cnc3nnn(Cc4ccc5ncccc5c4)c3n2)cn1 [PF-04217903]
Dose.FC.CTG (ISC-enriched organoids [1]; Dose 0.08 uM): 0.136 log 2 fold change | Z.CTG (ISC-enriched organoids [1]; Dose 0.08 uM): 0.326 | Dose.FC.CTG (ISC-enriched organoids [1]; Dose 0.40 uM): 0.258 log 2 fold change | Z.CTG (ISC-enriched organoids [1]; Dose 0.40 uM): 0.616 | Dose.FC.CTG (ISC-enriched organoids [1]; Dose 2.00 uM): −0.051 log 2 fold change | Z.CTG (ISC-enriched organoids [1]; Dose 2.00 uM): −0.122 | Dose.FC.CTG (ISC-enriched organoids [1]; Dose 10.00 uM): 0.116 log 2 fold change | Z.CTG (ISC-enriched organoids [1]; Dose 10.00 uM): 0.276 | Dose.FC.LYZ.S (ISC-enriched organoids [2]; Dose 0.08 uM): 0.110 log 2 fold change | Dose.FC.LYZ.S (ISC-enriched organoids [2]; Dose 0.40 uM): 0.265 log 2 fold change | Dose.FC.LYZ.S (ISC-enriched organoids [2]; Dose 2.00 uM): 0.049 log 2 fold change | Dose.FC.LYZ.S (ISC-enriched organoids [2]; Dose 10.00 uM): 0.127 log 2 fold change | Dose.FC.LYZ.NS (ISC-enriched organoids [3]; Dose 0.08 uM): 0.085 log 2 fold change | Z.LYZ.NS (ISC-enriched organoids [3]; Dose 0.08 uM): 0.742 | Dose.FC.LYZ.NS (ISC-enriched organoids [3]; Dose 0.40 uM): 0.161 log 2 fold change | Z.LYZ.NS (ISC-enriched organoids [3]; Dose 0.40 uM): 1.404 | Dose.FC.LYZ.NS (ISC-enriched organoids [3]; Dose 2.00 uM): 0.122 log 2 fold change | Z.LYZ.NS (ISC-enriched organoids [3]; Dose 2.00 uM): 1.060 | Dose.FC.LYZ.NS (ISC-enriched organoids [3]; Dose 10.00 uM): 0.071 log 2 fold change | Z.LYZ.NS (ISC-enriched organoids [3]; Dose 10.00 uM): 0.617

Cc1cnc(-c2cc(N3CCN(C(=O)CCS(C)(=O)=O)CC3)ncc2Cl)c(C)c1 [PF-5274857]
Dose.FC.CTG (ISC-enriched organoids [1]; Dose 0.08 uM): −0.101 log 2 fold change | Z.CTG (ISC-enriched organoids [1]; Dose 0.08 uM): −0.242 | Dose.FC.CTG (ISC-enriched organoids [1]; Dose 0.40 uM): −0.040 log 2 fold change | Z.CTG (ISC-enriched organoids [1]; Dose 0.40 uM): −0.096 | Dose.FC.CTG (ISC-enriched organoids [1]; Dose 2.00 uM): 0.055 log 2 fold change | Z.CTG (ISC-enriched organoids [1]; Dose 2.00 uM): 0.131 | Dose.FC.CTG (ISC-enriched organoids [1]; Dose 10.00 uM): −0.076 log 2 fold change | Z.CTG (ISC-enriched organoids [1]; Dose 10.00 uM): −0.183 | Dose.FC.LYZ.S (ISC-enriched organoids [2]; Dose 0.08 uM): 0.187 log 2 fold change | Dose.FC.LYZ.S (ISC-enriched organoids [2]; Dose 0.40 uM): −0.034 log 2 fold change | Dose.FC.LYZ.S (ISC-enriched organoids [2]; Dose 2.00 uM): 0.042 log 2 fold change | Dose.FC.LYZ.S (ISC-enriched organoids [2]; Dose 10.00 uM): 0.076 log 2 fold change | Dose.FC.LYZ.NS (ISC-enriched organoids [3]; Dose 0.08 uM): 0.078 log 2 fold change | Z.LYZ.NS (ISC-enriched organoids [3]; Dose 0.08 uM): 0.683 | Dose.FC.LYZ.NS (ISC-enriched organoids [3]; Dose 0.40 uM): −0.029 log 2 fold change | Z.LYZ.NS (ISC-enriched organoids [3]; Dose 0.40 uM): −0.256 | Dose.FC.LYZ.NS (ISC-enriched organoids [3]; Dose 2.00 uM): 0.011 log 2 fold change | Z.LYZ.NS (ISC-enriched organoids [3]; Dose 2.00 uM): 0.094 | Dose.FC.LYZ.NS (ISC-enriched organoids [3]; Dose 10.00 uM): 0.074 log 2 fold change | Z.LYZ.NS (ISC-enriched organoids [3]; Dose 10.00 uM): 0.642

COc1ccccc1S(=O)(=O)Nc1ccc2c(c1)CN(C)C(=O)N2 [PFI-1 (PF-6405761)]
Dose.FC.CTG (ISC-enriched organoids [1]; Dose 0.08 uM): 0.142 log 2 fold change | Z.CTG (ISC-enriched organoids [1]; Dose 0.08 uM): 0.340 | Dose.FC.CTG (ISC-enriched organoids [1]; Dose 0.40 uM): 0.390 log 2 fold change | Z.CTG (ISC-enriched organoids [1]; Dose 0.40 uM): 0.931 | Dose.FC.CTG (ISC-enriched organoids [1]; Dose 2.00 uM): 0.322 log 2 fold change | Z.CTG (ISC-enriched organoids [1]; Dose 2.00 uM): 0.770 | Dose.FC.CTG (ISC-enriched organoids [1]; Dose 10.00 uM): −0.389 log 2 fold change | Z.CTG (ISC-enriched organoids [1]; Dose 10.00 uM): −0.929 | Dose.FC.LYZ.S (ISC-enriched organoids [2]; Dose 0.08 uM): 0.061 log 2 fold change | Dose.FC.LYZ.S (ISC-enriched organoids [2]; Dose 0.40 uM): 0.104 log 2 fold change | Dose.FC.LYZ.S (ISC-enriched organoids [2]; Dose 2.00 uM): −0.117 log 2 fold change | Dose.FC.LYZ.S (ISC-enriched organoids [2]; Dose 10.00 uM): −0.194 log 2 fold change | Dose.FC.LYZ.NS (ISC-enriched organoids [3]; Dose 0.08 uM): 0.062 log 2 fold change | Z.LYZ.NS (ISC-enriched organoids [3]; Dose 0.08 uM): 0.538 | Dose.FC.LYZ.NS (ISC-enriched organoids [3]; Dose 0.40 uM): 0.079 log 2 fold change | Z.LYZ.NS (ISC-enriched organoids [3]; Dose 0.40 uM): 0.691 | Dose.FC.LYZ.NS (ISC-enriched organoids [3]; Dose 2.00 uM): −0.098 log 2 fold change | Z.LYZ.NS (ISC-enriched organoids [3]; Dose 2.00 uM): −0.852 | Dose.FC.LYZ.NS (ISC-enriched organoids [3]; Dose 10.00 uM): −0.066 log 2 fold change | Z.LYZ.NS (ISC-enriched organoids [3]; Dose 10.00 uM): −0.573

COc1cc(OC)c(NC(=O)Nc2cc(C)on2)cc1Cl [PNU-120596]
Dose.FC.CTG (ISC-enriched organoids [1]; Dose 0.08 uM): −0.079 log 2 fold change | Z.CTG (ISC-enriched organoids [1]; Dose 0.08 uM): −0.188 | Dose.FC.CTG (ISC-enriched organoids [1]; Dose 0.40 uM): 0.085 log 2 fold change | Z.CTG (ISC-enriched organoids [1]; Dose 0.40 uM): 0.204 | Dose.FC.CTG (ISC-enriched organoids [1]; Dose 2.00 uM): 0.114 log 2 fold change | Z.CTG (ISC-enriched organoids [1]; Dose 2.00 uM): 0.271 | Dose.FC.CTG (ISC-enriched organoids [1]; Dose 10.00 uM): 0.138 log 2 fold change | Z.CTG (ISC-enriched organoids [1]; Dose 10.00 uM): 0.330 | Dose.FC.LYZ.S (ISC-enriched organoids [2]; Dose 0.08 uM): 0.058 log 2 fold change | Dose.FC.LYZ.S (ISC-enriched organoids [2]; Dose 0.40 uM): 0.081 log 2 fold change | Dose.FC.LYZ.S (ISC-enriched organoids [2]; Dose 2.00 uM): 0.065 log 2 fold change | Dose.FC.LYZ.S (ISC-enriched organoids [2]; Dose 10.00 uM): −0.049 log 2 fold change | Dose.FC.LYZ.NS (ISC-enriched organoids [3]; Dose 0.08 uM): 0.108 log 2 fold change | Z.LYZ.NS (ISC-enriched organoids [3]; Dose 0.08 uM): 0.944 | Dose.FC.LYZ.NS (ISC-enriched organoids [3]; Dose 0.40 uM): −0.011 log 2 fold change | Z.LYZ.NS (ISC-enriched organoids [3]; Dose 0.40 uM): −0.098 | Dose.FC.LYZ.NS (ISC-enriched organoids [3]; Dose 2.00 uM): 0.068 log 2 fold change | Z.LYZ.NS (ISC-enriched organoids [3]; Dose 2.00 uM): 0.594 | Dose.FC.LYZ.NS (ISC-enriched organoids [3]; Dose 10.00 uM): −0.060 log 2 fold change | Z.LYZ.NS (ISC-enriched organoids [3]; Dose 10.00 uM): −0.525
